The values below come from patent US20230009323A1, “COMPOUNDS AND METHODS FOR THE TREATMENT OF CRYPTOSPORIDIOSIS” (The Broad Institute, Inc., priority 2019, published 2023).

Each structure is given as a SMILES string. Read-outs that look alike come from different tables or passages of the source.

Series [1] concerns C. parvum. As to conditions: general statement or literature report; cited from earlier work.
The subject of series [2] is C. parvum Iowa isolate (Bunch Grass Farm). The series is described as follows: C. parvum Iowa isolate (Bunch Grass Farm) growth in HCT-8 cells, high-content microscopy. It is filed as cell-based. The conditions noted are these: Cryptosporidium parvum. How it is done:
A high-content microscopy assay was used to measure activity of compounds against C. parvum grown in the human adenocarcinoma cell line HCT-8 (ATCC) as disclosed in Bessoff, K., et al., Antimicrobial agents and chemotherapy 57, 1804-1814, doi:10.1128/AAC.02460-12 (2013), hereby incorporated by reference in its entirety. HCT-8 cells were cultured in 384-well clear-bottomed plates in 50 μL per well of RPMI 1640 medium ([…]), 120 U·mL^−1 penicillin, and 120 μg·mL^−1 streptomycin (ATCC) at 37° C. under 5% CO2. For compound screening and follow-up SAR studies, confluent cell monolayers were infected with C. parvum Iowa isolate oocysts [Bunch Grass Farm (Deary, Id.); ˜5,500 oocysts per well] after inducing excystation by treatment for 10 min at 37° C. with 10 mM HCl and then 10 min at 16° C. in 2 mM sodium taurocholate. Compounds were added at the indicated concentrations 3 h after monolayer infection. After incubation (37° C., 5% CO2) for 48 h, the cells were washed three times with PBS containing 111 mM D-Galactose and fixed by adding an equal volume of 8% formaldehyde in PBS. Cell monolayers were then prepared for microscopy by permeabilizing with 0.1% Triton X-100, washing three times with PBS with 0.1% Tween 20, blocking with 4% bovine serum albumin (BSA) in PBS for 2 h at 37° C. or 4° C. overnight, and staining parasitophorous vacuoles with 1.33 μg·mL^−1 of fluorescein-labeled Vicia villosa lectin (Vector Laboratories) diluted in 1% BSA in PBS with 0.1% Tween 20 for 1 h at 37° C. DNA was then stained by adding Hoechst 33258 (AnaSpec) at a final concentration of 0.09 mM diluted in water, followed by washing five times with PBS containing 0.1% Tween 20. Images were acquired using a Nikon Eclipse TE2000 epifluorescence microscope with an automated stage that was programmed using NIS-Elements Advanced Research software (Nikon) to focus on the center of each well and take a 3×3 composite image using an EXi Blue fluorescence microscopy camera (QImaging) with a 20× objective (numerical aperture 0.45). Nucleus and parasite images were exported separately as tif files and analyzed using NIH ImageJ and previously reported macros, and data analysis and graphing were done using GraphPad Prism software, version 6.01. […]

The subject of series [3] is C. parvum. The experiment in a line: NOD SCID gamma mouse model of established cryptosporidiosis, fecal oocyst shedding by qPCR. It counts as in vivo, NOD SCID gamma mice. The conditions noted are these: oral, 50 mg/kg every 24 h for 4 days. An excerpt: FIG. 4A is a schematic of NOD SCID gamma (NSG) mouse model of established intestinal cryptosporidiosis. Intestinal C. parvum infection was established by oral gavage of ˜10^5 oocysts either 7 days (FIGS. 4B and C) or 14 days (FIG. 4D) prior to oral treatment with bicyclic azetidines, vehicle, or paromomycin (positive control). All data are the mean and SEM (n=4 mice per experimental group) of parasite shedding per mg of feces measured by qPCR with results for individual mice shown as superimposed data points. Data points for which no parasite DNA was detected are shown at the qPCR assay limit of detection (0.1 oocysts per mg feces).
NOD scid gamma mice (NOD.Cg-Prkdcscid Il2rgtmlWjl/Szj; Jackson Laboratory, Bar Harbor, Me.) (NSG) were used to model established Cryptosporidium infection. All NSG mouse studies were performed in compliance with animal care guidelines and with approval by the University of Vermont Institutional Animal Care and Use Committee. Mice were acquired at three to four weeks of age, and acclimatized for one week prior to infection by oral gavage of ˜10^5 C. parvum Iowa isolate (Bunch Grass Farms) oocysts. They were then treated at the specified times and dosages with each compound dissolved in 0.5% hydroxypropylmethyl cellulose, 0.5% Tween 80 (v/v) plus 5% DMSO.
This cryptosporidiosis infection model used 3-4 week old, freshly weaned, NOD SCID gamma mice orally infected with C. parvum oocysts (˜1×10^5). The infection was monitored by qPCR of feces with primers specific for C. parvum and data are shown as number of oocysts milligram^−1 of feces. Six days following infection and upon confirmation of parasite shedding by qPCR, the three compounds, negative and positive control were orally administered at 50 mg·kg^−1 (body weight) every 24 h for 4 days. (FIGS. 4A-D). […] We then performed a dose-ranging study with Compound 11 using the same immunocompromised mouse model and dosing regimens of 5, 20 and 40 mg·kg^−1 every 24 h for 4 days or 10 mg·kg^−1 every 24 h for 7 days. Mice were monitored for an additional 14 days for relapse of infection.
In general terms: In qPCR the cycle at which signal appears reflects the starting amount.

A short description of the next series: HEK293T cytotoxicity. It counts as cell-based. As to conditions: human, HEK293T cells.
Another series can be described thus: HepG2 cytotoxicity. The conditions noted are these: human, HepG2 cells. It counts as cell-based.
The test system of series [4] is C. parvum (Field Isolate) WSU. The series is described as follows: C. parvum field isolate (WSU) growth in HCT-8 cells. It is filed as cell-based. The conditions noted are these: Cryptosporidium parvum. How it is done:
(§1) Studies using farm C. parvum isolates and the C. hominis TU502 isolate were performed by Calibr at Scripps Research (La Jolla, Calif.) in 1,536-well plates using a slightly modified immunofluorescence assay as described in Love, M. S. et al. PLoS neglected tropical diseases 11, e0005373, doi:10.1371/journal.pntd.0005373 (2017), hereby incorporated by reference in its entirety. HCT-8 cell culture medium was replaced with RPMI 1640 medium supplemented with 2% heat-inactivated horse serum, 100 U·mL^−1 penicillin, and […] 24 h prior to infection with the indicated isolate. The C. parvum Iowa isolate was included as a reference in all experiments. Imaging was performed using a Cellnsight CX5 High Content screening platform (Thermo Scientific) with a 10× objective and acquisition of one microscopic field per well. Images were processed using HCS Studio Scan software, and the selected-object count (HCT-8 cells) and spot count (parasitophorous vacuoles) were analyzed in Genedata Screener (version 13.0; Standard). Dose-response curves and EC50 values were calculated using the Smart Fit function of Genedata Analyzer.

Series [5] has as its system C. parvum (Iowa) Sterling. The series is described as follows: C. parvum (Iowa) Sterling growth in HCT-8 cells. It counts as cell-based. The conditions noted are these: Cryptosporidium parvum. As to the method: as §1
For the next series, the system named is C. hominis (TU 502). The experiment in a line: C. hominis TU502 growth in HCT-8 cells. It is filed as cell-based. As to conditions: Cryptosporidium hominis. How it is done:
as §1

Series [6] relates to C. parvum mutant transgenic PheRS (mut482V). The experiment in a line: microbe, parasite or virus in culture. It counts as cell-based, Cryptosporidium parvum. How it is done: (§2) The in vitro drug susceptibility assay using transgenic parasites expressing Nluc was performed as described in Vinyak et al. Briefly, host intestinal epithelial adenocarcinoma (HCT-8) cells grown in 96-well plates were infected with purified transgenic Nluc-expressing oocysts (1,000 oocysts per well) and incubated with different concentrations of Compound 11 for 48 hours. Culture supernatant was discarded from the wells after 48 hours, and 200 μl of NanoGlo lysis buffer containing 1:50 of NanoGlo substrate (Promega) was added to the wells. Lysates were transferred to white 96-well plates and luminescence was measured on a Glomax luminescence reader (Promega). EC50 values were calculated in GraphPad Prism software v7.
(§3) Oocysts from the mutant (mut482V) and wild type (wtL482) transgenic lines were purified as well as the parent strain (Bunchgrass) used to generate the transgenics. Sporozoites were excised from these oocysts and used to infect 96 well format HCT-8 cultures to perform in vitro drug susceptibility assays. Cultures were incubated for 48 hours in the presence of varying concentrations of Compound 11 and parasite growth was measured by establishing whole well luciferase activity to calculate EC50 values for each strain.

The test system of series [7] is C. parvum WT transgenic PheRS (wtL482). The series is described as follows: In vitro drug susceptibility in HCT-8 cells, luminescence, wild type transgenic. As to conditions: Cryptosporidium parvum, HCT-8, 48 h, read-out: EC50, wild type transgenic. It is filed as cell-based. How it is done: as §2, §3
The next series deals with P. falciparum. The series is described as follows: P. falciparum blood-stage growth inhibition. It counts as cell-based. As to conditions: Plasmodium falciparum. As to the method:
Pf EC50's were obtained using the procedure disclosed in Bessoff, K. et al. Antimicrobial agents and chemotherapy 58, 2731-2739, doi:10.1128/AAC.02641-13 (2014), hereby incorporated by reference in its entirety. Reduction in C. parvum oocysts/mg feces was determined in the C. parvum immunocompromised mouse model as described in the Examples.

Setting [8] is: serum not given, read-out: C. parvum EC50.
[9] abbreviates: read-out: C. parvum (Iowa) (1% FBS) BGF EC50.
Setting [10] is: read-out: C. parvum (Iowa) (10% FBS) BGF EC50.

As to `O=C(Nc1ccc(Cl)cc1)N1CCN(c2ccc3nncn3n2)CC1` [MMV665917], the “outcome of treatment in C. parvum infected NSG mice” value (“outcome of treatment” below) in the series on C. parvum [1] is recorded as “curative”.
A word on the EC50: it is the concentration at which the effect is half-maximal. On to `COc1ccc(NC(=O)N2CCCCN3[C@H](CO)[C@H](c4ccc(C#Cc5ccccc5)cc4)[C@@H]3C2)cc1` [Compound 9, (8R,9R,10S)-10-(hydroxymethyl)-N-(4-methoxyphenyl)-9-(4-(phenylethynyl)phenyl)-1,6-diazabicyclo[6.2.0]decane-6-carboxamide], for which the EC50 in [2] (setting [8]) was less than 73 nM. Further, the “reduction in oocyst shedding (oocysts per mg feces)” value (from here on “reduction … (oocysts per mg feces)”) in the series with C. parvum [3] was “significant reduction in oocyst shedding”.
By CC50 is commonly meant the concentration that lowers cell viability or growth by half. A higher CC50 goes with lower toxicity to the cells. Take `COc1ccc(NC(=O)N2CCCCN3[C@H](CN(C)S(C)(=O)=O)[C@H](c4ccc(C#Cc5ccccc5)cc4)[C@@H]3C2)cc1` [Compound 17, (8R,9R,10S)-N-(4-methoxyphenyl)-10-((N-methylmethylsulfonamido)methyl)-9-(4-(phenylethynyl)phenyl)-1,6-diazabicyclo[6.2.0]decane-6-carboxamide]: the CC50 in “HEK293T cytotoxicity” and in the series “HepG2 cytotoxicity” was more than 40000 nM each time. The EC50 turned out to be 6 nM in series [2] (setting [9]); 7 nM in [2] (setting [10]); 6 nM in [4]; 5 nM in [5]; 4 nM in the series on C. hominis (TU 502). The “reduction … (oocysts per mg feces)” value in the series on C. parvum [3] is given as “greatest reduction in oocysts”.
For `NC[C@@H]1O[C@H](O[C@H]2[C@@H](O)[C@H](O[C@@H]3[C@@H](O)[C@H](N)C[C@H](N)[C@H]3O[C@H]3O[C@H](CO)[C@@H](O)[C@H](O)[C@H]3N)O[C@@H]2CO)[C@H](N)[C@@H](O)[C@@H]1O` [paromomycin], the “outcome of treatment” value with C. parvum [1] is listed as “quickly relapse”.
For `CC(C)/N=c1\cc2n(-c3ccc(Cl)cc3)c3ccccc3nc-2cc1Nc1ccc(Cl)cc1` [clofazimine], the “outcome of treatment” value in the series on C. parvum [1] is listed as “show no improvement at all”.
Take `COc1ccc(NC(=O)N2CCCCN3C[C@H](c4ccc(C#Cc5ccccc5)cc4)[C@@H]3C2)cc1` [Compound 19, (8R,9S)-N-(4-methoxyphenyl)-9-(4-(phenylethynyl)phenyl)-1,6-diazabicyclo[6.2.0]decane-6-carboxamide]: in [6], the “fold shift in EC50, mutant transgenic vs wild type transgenic” value was found to be 9 fold. The EC50 in [6] (Cryptosporidium parvum, HCT-8, 48 h, read-out: EC50, mutant transgenic) stood at 372 nM; in [2] (setting [9]), 36 nM; in [2] (setting [10]), 62 nM; in series [4], 96 nM; in series [5] it was 31 nM; in series [7] it was 40.8 nM. The midpoint of the response in the series on C. hominis (TU 502), the EC50, lay at 55 nM. In addition, the figures for the CC50 in the series “HEK293T cytotoxicity” and in “HepG2 cytotoxicity” were 25000 nM and 10000 nM, respectively.
In the case of `COc1ccc(NC(=O)N2CCCCN3[C@H](COCCC(=O)O)[C@H](c4ccc(C#Cc5ccccc5)cc4)[C@@H]3C2)cc1` [Compound 10, 3-(((8R,9R,10S)-6-((4-methoxyphenyl)carbamoyl)-9-(4-(phenylethynyl)phenyl)-1,6-diazabicyclo[6.2.0]decan-10-yl)methoxy)propanoic acid], the CC50 in “HEK293T cytotoxicity” and in the series “HepG2 cytotoxicity” was more than 40000 nM each time. Moreover, the EC50 was 4 nM in series [2] (setting [9]); 15 nM in [2] (setting [10]); less than 73 nM in series [2] (setting [8]); 9 nM in series [4]; 2 nM in series [5]; 5 nM in the series on C. hominis (TU 502). Also, in the series with C. parvum [3], the “reduction … (oocysts per mg feces)” value is reported as “significant reduction in oocyst shedding”.
Consider `COc1ccc(NC(=O)N2C[C@@H](O)[C@@H](O)CN3[C@H](CS(C)(=O)=O)[C@H](c4ccc(C#Cc5ccccc5)cc4)[C@@H]3C2)cc1` [Compound 18, (3S,4R,8R,9R,10S)-3,4-dihydroxy-N-(4-methoxyphenyl)-10-((methylsulfonyl)methyl)-9-(4-(phenylethynyl)phenyl)-1,6-diazabicyclo[6.2.0]decane-6-carboxamide], for which the CC50 in the series “HEK293T cytotoxicity” was 6000 nM; in the series “HepG2 cytotoxicity”, 8000 nM. Further, the EC50 in series [2] (setting [9]) is less than 0.4 nM; in [4], less than 0.4 nM; in series [5], less than 0.4 nM; in the series on C. hominis (TU 502), 2 nM.
With `COC[C@@]12CN(C(=O)Nc3ccc(OC)cc3)CCCCN1[C@H](CO)[C@@H]2c1ccc(C#Cc2ccccc2)cc1` [Compound 2, (8R,9S,10S)-10-(hydroxymethyl)-8-(methoxymethyl)-N-(4-methoxyphenyl)-9-(4-(phenylethynyl)phenyl)-1,6-diazabicyclo[6.2.0]decane-6-carboxamide], the half-maximal effective concentration (EC50) with P. falciparum was found to be 627 nM; in [2] (setting [8]), 580 nM.
